pIC50: −log10 of the molar value. Some results are limits rather than exact numbers.

In patent publication US20250197372A1 (priority 2020, published 2025) one finds IC50 data, which are given here for 20 compounds.

In one test the target is T1, recombinant alpha-glucosidase II (murine full-length glucosidase II, alpha and beta subunits, Glu 2) (Mus musculus, UniProt Q8BHN3).
T1 construct: made in house; host or cells: HEK-293T cells transduced with BacMam viruses (75% alpha, 25% beta); protein harvested from culture supernatant
T1 sequence (O08795 15-521): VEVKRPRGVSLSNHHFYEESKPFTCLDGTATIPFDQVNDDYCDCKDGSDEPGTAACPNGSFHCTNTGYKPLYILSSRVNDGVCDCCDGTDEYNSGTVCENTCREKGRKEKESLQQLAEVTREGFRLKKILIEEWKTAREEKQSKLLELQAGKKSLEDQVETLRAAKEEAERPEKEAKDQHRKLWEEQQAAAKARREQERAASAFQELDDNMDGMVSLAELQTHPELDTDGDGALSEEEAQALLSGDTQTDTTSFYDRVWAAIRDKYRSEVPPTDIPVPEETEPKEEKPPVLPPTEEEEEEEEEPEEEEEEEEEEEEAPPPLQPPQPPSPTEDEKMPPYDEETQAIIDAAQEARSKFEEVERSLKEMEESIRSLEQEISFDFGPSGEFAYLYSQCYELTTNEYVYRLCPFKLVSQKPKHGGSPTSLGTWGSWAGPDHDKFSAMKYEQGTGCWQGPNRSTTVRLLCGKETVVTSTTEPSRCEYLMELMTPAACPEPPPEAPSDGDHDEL
T1 sequence (Q8BHN3 33-944): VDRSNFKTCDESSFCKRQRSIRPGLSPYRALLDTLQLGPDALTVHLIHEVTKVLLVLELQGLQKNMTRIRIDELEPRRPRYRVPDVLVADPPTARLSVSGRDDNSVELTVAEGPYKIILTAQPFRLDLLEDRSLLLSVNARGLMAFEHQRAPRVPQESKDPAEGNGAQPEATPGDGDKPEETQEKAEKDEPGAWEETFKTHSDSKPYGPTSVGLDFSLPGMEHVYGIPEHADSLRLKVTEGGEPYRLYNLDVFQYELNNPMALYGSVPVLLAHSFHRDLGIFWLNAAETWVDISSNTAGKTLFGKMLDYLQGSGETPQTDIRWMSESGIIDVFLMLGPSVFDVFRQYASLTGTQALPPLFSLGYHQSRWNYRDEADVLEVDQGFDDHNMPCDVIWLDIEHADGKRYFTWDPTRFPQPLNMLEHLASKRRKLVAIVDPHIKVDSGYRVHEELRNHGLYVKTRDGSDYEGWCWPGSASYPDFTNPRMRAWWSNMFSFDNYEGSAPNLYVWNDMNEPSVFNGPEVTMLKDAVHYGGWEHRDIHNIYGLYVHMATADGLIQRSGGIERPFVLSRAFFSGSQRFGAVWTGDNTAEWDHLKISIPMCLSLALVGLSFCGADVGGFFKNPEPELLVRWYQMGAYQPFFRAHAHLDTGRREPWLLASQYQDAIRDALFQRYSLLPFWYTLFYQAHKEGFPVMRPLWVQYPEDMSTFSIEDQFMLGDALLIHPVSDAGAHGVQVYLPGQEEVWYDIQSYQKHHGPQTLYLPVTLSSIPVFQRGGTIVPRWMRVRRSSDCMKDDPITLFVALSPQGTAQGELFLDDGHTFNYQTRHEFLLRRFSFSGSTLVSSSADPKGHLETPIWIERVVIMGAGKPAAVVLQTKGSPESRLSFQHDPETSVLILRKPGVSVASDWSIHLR
The experiment in a line: Alpha-glucosidase II assay (4-methylumbelliferyl-alpha-D-pyranoside substrate, fluorescence). The class given is biochemical.
Details: not given
In the case of `[N-]=[N+]=Nc1ccc(NCC/C=C/CCN2C[C@H](O)[C@@H](O)[C@H](O)[C@H]2CO)c([N+](=O)[O-])c1` [Compound 1260, (2R,3R,4R,5S)-1-[(3E)-6-[(4-azido-2-nitrophenyl)amino]hex-3-en-1-yl]-2-(hydroxymethyl)piperidine-3,4,5-triol], the pIC50 – broadly, the IC50 on a negative log10 scale, so that one unit is a factor of ten – was 7.82.

The same test, now with this note: Glucosidase 2; read-out: Glu2 IC50.
For `Cc1cc(NCc2ccc(CN3C[C@H](O)[C@@H](O)[C@H](O)[C@H]3CO)cc2)cc(-c2cccnn2)c1` [Compound 1052, (2R,3R,4R,5S)-2-(hydroxymethyl)-1-{[4-({[3-methyl-5-(pyridazin-3-yl)phenyl]amino}methyl)phenyl]methyl}piperidine-3,4,5-trio], the pIC50 was 6.75.

Consider `OC[C@@H]1[C@@H](O)[C@H](O)[C@@H](O)CN1CCc1ccc(CCNc2cc(Cl)cc(C3=COCCO3)c2)cc1` [Compound 1161, (2R,3R,4R,5S)-1-{2-[4-(2-{[3-chloro-5-(5,6-dihydro-1,4-dioxin-2-yl)phenyl]amino}ethyl)phenyl]ethyl}-2-(hydroxymethyl)piperidine-3,4,5-triol], for which the pIC50 was 8.70.

With `OC[C@@H]1[C@@H](O)[C@H](O)[C@@H](O)CN1CCc1ccc(CCNc2cc(Cl)cc(-c3ncccn3)c2)cc1` [Compound 1162, (2R,3R,4R,5S)-1-{2-[4-(2-{[3-chloro-5-(pyrimidin-2-yl)phenyl]amino}ethyl)phenyl]ethyl}-2-(hydroxymethyl)piperidine-3,4,5-triol], the pIC50 is over 9.00.

For `COc1cc(NCCc2ccc(CCN3C[C@H](O)[C@@H](O)[C@H](O)[C@H]3CO)cc2)cc(-c2ccco2)c1` [Compound 1153, (2R,3R,4R,5S)-1-{2-[4-(2-{[3-(furan-2-yl)-5-methoxy-phenyl]amino}ethyl)phenyl]ethyl}-2-(hydroxymethyl)piperidine-3,4,5-triol], the pIC50 is 6.26.

For `OC[C@@H]1[C@@H](O)[C@H](O)[C@@H](O)CN1CCCCCCNc1ccc(-c2cccnn2)cc1Cl` [Compound 1202, (2R,3R,4R,5S)-1-(6-{[2-chloro-4-(pyridazin-3-yl)phenyl]amino}hexyl)-2-(hydroxymethyl)piperidine-3,4,5-triol], the pIC50 is over 9.00.

On to `O=[N+]([O-])c1cc(N2CCOCC2)ccc1NCc1cccc(CN2C[C@H](O)[C@@H](O)[C@H](O)[C@H]2CO)c1` [Compound 1067, (2R,3R,4R,5S)-2-(hydroxymethyl)-1-{[3-({[4-(morpholin-4-yl)-2-nitrophenyl]amino}methyl)phenyl]methyl}piperidine-3,4,5-triol], for which the pIC50 was 4.89.

Regarding `[N-]=[N+]=Nc1ccc(NCCc2ccc(CCN3C[C@H](O)[C@@H](O)[C@H](O)[C@H]3CO)c3c2OCCO3)c([N+](=O)[O-])c1` [Compound 1173, (2R,3R,4R,5S)-1-[2-(8-{2-[(4-azido-2-nitrophenyl)amino]ethyl}-2,3-dihydro-1,4-benzodioxin-5-yl)ethyl]-2-(hydroxymethyl)piperidine-3,4,5-triol], the pIC50 is 6.18.

`OC[C@@H]1[C@@H](O)[C@H](O)[C@@H](O)CN1CCCCCCNc1cc(-c2ncccn2)cc(C(F)(F)F)c1` [Compound 1131, (2R,3R,4R,5S)-2-(hydroxymethyl)-1-(6-{[3-(pyrimidin-2-yl)-5-(trifluoromethyl)phenyl]amino}hexyl)piperidine-3,4,5-triol]: the pIC50 is 8.52.

Consider `O=Cc1cc(NCCCCCCN2C[C@H](O)[C@@H](O)[C@H](O)[C@H]2CO)cc(-c2ncccn2)c1` [Compound 1129, 3-(pyrimidin-2-yl)-5-({6-[(2R,3R,4R,5S)-3,4,5-trihydroxy-2-(hydroxymethyl)piperidin-1-yl]hexyl}amino)benzaldehyde], for which the pIC50 was 8.15.

With `OC[C@@H]1[C@@H](O)[C@H](O)[C@@H](O)CN1CCCCCCNc1cc(-c2cccnn2)cc(C2CC2)c1` [Compound 1008, (2R,3R,4R,5S)-1-(6-{[3-cyclopropyl-5-(pyridazin-3-yl)phenyl]amino}hexyl)-2-(hydroxymethyl)piperidine-3,4,5-triol], the pIC50 was 7.92.

For the compound `N#Cc1cc(Cl)cc(NCCc2ccc(CCN3C[C@H](O)[C@@H](O)[C@H](O)[C@H]3CO)cc2)c1` [Compound 1134, 3-chloro-5-{[2-(4-{2-[(2R,3R,4R,5S)-3,4,5-trihydroxy-2-(hydroxymethyl)piperidin-1-yl]ethyl}phenyl)ethyl]amino}benzonitrile], the pIC50 was 9.00.

On to `CS(=O)(=O)c1cc(NCc2cccc(CN3C[C@H](O)[C@@H](O)[C@H](O)[C@H]3CO)c2)cc(-c2ncccn2)c1` [Compound 1041, (2R,3R,4R,5S)-2-(hydroxymethyl)-1-{[3-({[3-methanesulfonyl-5-(pyrimidin-2-yl)phenyl]amino}methyl)phenyl]methyl}piperidine-3,4,5-triol], for which the pIC50 was 5.14.

For the compound `CN(C)C(=O)c1cc(NCCCCCCN2C[C@H](O)[C@@H](O)[C@H](O)[C@H]2CO)cc(-c2ncccn2)c1` [Compound 1126, N,N-dimethyl-3-(pyrimidin-2-yl)-5-({6-[(2R,3R,4R,5S)-3,4,5-trihydroxy-2-(hydroxymethyl)piperidin-1-yl]hexyl}amino)benzamide], the pIC50 is 7.46.

On to `OC[C@@H]1[C@@H](O)[C@H](O)[C@@H](O)CN1Cc1ccc(CNc2cc(-c3cccnn3)cc(C3CC3)c2)cc1` [Compound 1012, (2R,3R,4R,5S)-1-{[4-({[3-cyclopropyl-5-(pyridazin-3-yl)phenyl]amino}methyl)phenyl]methyl}-2-(hydroxymethyl)piperidine-3,4,5-triol], for which the negative logarithm of the IC50 (pIC50) was 5.88.

In the case of `[N-]=[N+]=Nc1ccc(NCCc2cnn(CCN3C[C@H](O)[C@@H](O)[C@H](O)[C@H]3CO)c2)c([N+](=O)[O-])c1` [Compound 1191, (2R,3R,4R,5S)-1-[2-(4-{2-[(4-azido-2-nitrophenyl)amino]ethyl}-1H-pyrazol-1-yl)ethyl]-2-(hydroxymethyl)piperidine-3,4,5-triol], the pIC50 was 4.69.

Regarding `OC[C@@H]1[C@@H](O)[C@H](O)[C@@H](O)CN1CCCCCCNc1cc(-c2ncccn2)cc(C2CC2)c1` [Compound 1009, (2R,3R,4R,5S)-1-(6-{[3-cyclopropyl-5-(pyrimidin-2-yl)phenyl]amino}hexyl)-2-(hydroxymethyl)piperidine-3,4,5-triol], the pIC50 is 7.77.

For `OC[C@@H]1[C@@H](O)[C@H](O)[C@@H](O)CN1Cc1ccc(CNc2cc(-c3ncccn3)cc(C3CC3)c2)cc1` [Compound 1013, (2R,3R,4R,5S)-1-{[4-({[3-cyclopropyl-5-(pyrimidin-2-yl)phenyl]amino}methyl)phenyl]methyl}-2-(hydroxymethyl)piperidine-3,4,5-triol], the pIC50 was 6.82.

`COc1cc(Cc2ccccc2)cc(NCCCCCCN2C[C@H](O)[C@@H](O)[C@H](O)[C@H]2CO)c1` [Compound 1145, (2R,3R,4R,5S)-1-{6-[(3-benzyl-5-methoxyphenyl)amino]hexyl}-2-(hydroxymethyl)piperidine-3,4,5-triol]: the pIC50 was over 9.00.

In the case of `OC[C@@H]1[C@@H](O)[C@H](O)[C@@H](O)CN1Cc1ccc(CNc2cc(C3CC3)cc(N3CCOCC3)c2)cc1` [Compound 1010, (2R,3R,4R,5S)-1-{[4-({[3-cyclopropyl-5-(morpholin-4-yl)phenyl]amino}methyl)phenyl]methyl}-2-(hydroxymethyl)piperidine-3,4,5-triol], the pIC50 is 5.97.
